# Assays:
# [1] = system: guinea pigs excreting normal feces; test: Antidiarrheal effect: observation of feces after oral administration of saccharides or sugar alcohols with or without polysaccharides (Example 1); format: in vivo
# Description: The criteria for analyzing the conditions of feces (hardness, shape and spaces of feces in the intestine) are as shown in Table 2:
# The hardness and microscopic findings of feces from the group administered with distilled water were assessed as “Normal” scoring 3, the feces having normal shape and the shape could rather easily change by pushing with fingers were assessed as “Slightly soft” scoring 2, those of which the shape had already changed or it could quite easily change by pushed with fingers were assessed as “Soft” scoring 1, and those of which the shape is muddy or watery or of no shape were assessed “Muddy” scoring 0. To be precese, there are no watery feces because of the nature of diets and thus the muddy feces correspond to watery and muddy feces in human.
# Since the muddy feces comprise large content of water, they induce the high abdominal pressure and the flatulence and distension. […] In the case of gas generation, it appears that noxious symptom such as the flatulence and distension are synergistically deteriorated. Therefore, we assessed not only based on the hardness of feces, but also the size, smoothness of the surface and amount of feces.
# In these experiments, I observed is the diarrhea caused by saccharides or sugar alcohols and antidiarrhreal effect of saccharides. Guinea pigs orally received saccharides or sugar alcohols, for example tetrose such as erythritol, pentose such as xylitol or xylose, hexose such as isosorbitol or the like in combination with or without polysaccharides for observation of the feces up to 6 hours after the administration.
# Guinea pigs (body weight 280 to 320 g, normal feces) were divided into four groups: for Group 1-a, xylitol alone (Reference Example 1), or xylitol and xanthan gum or pectin; for Group 1-b, xylose alone (Reference Example 2), xylose and xanthan gum or pectin; for Group 1-c, erythritol alone (Reference Example 3), erythritol and pectin, erythritol and xanthan gum, or erythritol, pectin and natural aluminum silicate gel or calcium carbonate; and for Group 1-d, isosorbitol alone (Reference Example 4), or isosorbitol and xanthan gum or pectin were orally administered, respectively. The compounds are dissolved in distilled water and 8 ml/kg of said solution were administered as a single dose.
# The feces were observed during 6 hours after the administration. When the animals fell into the most serious condition, the hardness and shape of the feces from said animals were assessed as the effect by saccharides or sugar alcohols in the animals.
# [2] = system: animal model of experimental endolymphatic hydrops; test: Reference Example 6: erythritol added polyvinylpyrrolidone, conditions of feces; format: in vivo, guinea pigs; conditions: erythritol 2.8 g/kg oral, alone or with PVP
# Description: Guinea pigs (280 to 350 g of body weight, normal feces) received the surgical obliteration of the endolymphatic sac in the left ear to prepare an “animal model of experimental endolymphatic hydrops”. The surgery was performed as previously described in Non-patent Reference 8.
# One month after, the animals orally received erythritol (2.8 g/kg) added polyvinylpyrrolidone (0.5 g/kg, about 7.1% by weight). […] The result is shown in FIG. 10 with comparing Group 4 in Example 2 (Animals were sacrificed 3 hours after the administration of erythritol 2.8 g/kg alone).
# guinea pigs = test: Reference Example 7: erythritol or isosorbitol added jelly, conditions of feces and gastrointestinal tract; format: in vivo
# Text: As described hereinbefore, erythritol or isosorbitol as saccharides or sugar alcohols added jelly as a thickner were orally administered to 10 guinea pigs (280 to 350 g body weight) as shown in Table 41. The conditions of feces were observed.
# [3] = active agent 2.8 g/kg oral, alone or with additives of the label, most serious condition within 6 hours
# [4] = agent 2.8 g/kg oral + Jelly 0.05 g/kg, 5 animals
# [5] = agent 2.8 g/kg oral + Jelly 0.1 g/kg, 5 animals
# [6] = agent 2.8 g/kg oral + Jelly 0.15 g/kg, 5 animals
# [7] = agent 2.8 g/kg oral, no additive dosage (agent alone)
smiles,measurement,setting,value
"OC[C@@H](O)[C@@H](O)CO [Erythritol, erythritol]",Time after administration of the peak (most serious) diarrhea,"[1]; active agent 2.8 g/kg oral, alone or with additive of the label",Three hours after
same,Hardness of feces: Hard (number of animals),[1]; [3],0
same,Hardness of feces: Muddy (number of animals),[1]; [3],5
same,Hardness of feces: Normal (number of animals),[1]; [3],0
same,Hardness of feces: Slightly soft (number of animals),[1]; [3],0
same,Hardness of feces: Soft (number of animals),[1]; [3],0
same,Animals in which muddy feces continued up to 6 hours after,"[1]; erythritol 2.8 g/kg alone, 5 animals",3
same,Hardness of feces 0 (Muddy): number of animals,[2],5
same,Hardness of feces 1 (Soft): number of animals,[2],0
same,Hardness of feces 2 (Slightly soft): number of animals,[2],0
same,Hardness of feces 3 (Normal): number of animals,[2],0
same,Hardness of feces: Muddy (number of animals),guinea pigs; [4],5
same,Hardness of feces: Normal (number of animals),guinea pigs; [4],0
same,Hardness of feces: Slightly soft (number of animals),guinea pigs; [4],0
same,Hardness of feces: Soft (number of animals),guinea pigs; [4],0
same,Hardness of feces: Muddy (number of animals),guinea pigs; [5],5
same,Hardness of feces: Normal (number of animals),guinea pigs; [5],0
same,Hardness of feces: Slightly soft (number of animals),guinea pigs; [5],0
same,Hardness of feces: Soft (number of animals),guinea pigs; [5],0
same,Hardness of feces: Muddy (number of animals),guinea pigs; [6],5
same,Hardness of feces: Normal (number of animals),guinea pigs; [6],0
same,Hardness of feces: Slightly soft (number of animals),guinea pigs; [6],0
same,Hardness of feces: Soft (number of animals),guinea pigs; [6],0
same,Hardness of feces: Muddy (number of animals),guinea pigs; [7],5
same,Hardness of feces: Normal (number of animals),guinea pigs; [7],0
same,Hardness of feces: Slightly soft (number of animals),guinea pigs; [7],0
same,Hardness of feces: Soft (number of animals),guinea pigs; [7],0

# From patent US8445461B2, “Pharmaceutical composition for meniere's disease” (Setsuko Takeda, priority 2007, dated 2013)
